# Literature values as cited in patent US9201077B2 (Colorado State University Research Foundation, priority 2009, dated 2015).
# Tested on: Anti-Progesterone (R4859) Antibody raised against 11α-hemisuccinate progesterone
# Details: tested by UC Davis Endocrinology Laboratory
row,SMILES,% Cross Reaction [%]
1,"CC(=O)[C@H]1CC[C@H]2[C@@H]3CC[C@H]4CC(=O)CC[C@]4(C)[C@H]3CC[C@]12C [5α-Pregnane-3,20-dione]",12.19
2,CC(=O)[C@H]1CC[C@H]2[C@@H]3CCC4=CC(=O)CC[C@]4(C)[C@H]3[C@H](O)C[C@]12C [11α-OH-Progesterone],40.00
3,CC(=O)[C@@]1(O)CC[C@H]2[C@@H]3CCC4=CC(=O)CC[C@]4(C)[C@H]3CC[C@@]21C [17α-OH-Progesterone],0.38
4,C[C@H](O)[C@H]1CC[C@H]2[C@@H]3CCC4=CC(=O)CC[C@]4(C)[C@H]3CC[C@]12C [20α-OH-Progesterone],0.13
5,C[C@@H](O)[C@H]1CC[C@H]2[C@@H]3CCC4=CC(=O)CC[C@]4(C)[C@H]3CC[C@]12C [20β-OH-Progesterone],0.13
6,C[C@]12CCC(=O)C=C1CC[C@@H]1[C@@H]2[C@@H](O)C[C@@]2(C)[C@H]1CC[C@]2(O)C(=O)CO [Cortisol],<0.04
7,C[C@]12CC[C@@H]3c4ccc(O)cc4CC[C@H]3[C@@H]1CC[C@@H]2O [Estradiol 17β],<0.01
8,C[C@H](O)[C@H]1CC[C@H]2[C@@H]3CC[C@@H]4C[C@H](O)CC[C@]4(C)[C@H]3CC[C@]12C [Pregnanediol],<0.01
9,CC(=O)[C@H]1CC[C@H]2[C@@H]3CC=C4C[C@@H](O)CC[C@]4(C)[C@H]3CC[C@]12C [Pregnenolone],0.12
10,CC(=O)[C@H]1CC[C@H]2[C@@H]3CCC4=CC(=O)CC[C@]4(C)[C@H]3CC[C@]12C [Progesterone],100.00
11,C[C@]12CC[C@H]3[C@@H](CCC4=CC(=O)CC[C@@]43C)[C@@H]1CC[C@@H]2O [Testosterone],<0.01

# Tested on: antibody used in progesterone assays
# Details: conventional progesterone assay
row,SMILES,cross-reaction with the antibody used in progesterone assays
1,C=CC[C@]1(O)CC[C@H]2[C@@H]3CCC4=CC(=O)CCC4=C3C=C[C@@]21C [altrenogest],does not cross-react
